This is an account of results in ChEMBL document CHEMBL1157741, “Synthesis and antituberculosis activity of novel mefloquine-isoxazole carboxylic esters as prodrugs” (Bioorg Med Chem Lett, 2010).

In brackets after ≈: the same amount, converted by molar mass.

The subject of data set [1] is Mycobacterium tuberculosis. Put plainly: Antitubercular activity against Mycobacterium tuberculosis H37Rv after 72 hrs by microplate alamar blue assay. Format: functional.
The subject of data set [2] is Mycobacterium tuberculosis. The data set is described as follows: Antitubercular activity against Mycobacterium tuberculosis H37Rv after 28 hrs by low oxygen recovery assay. It counts as functional.
The next data set concerns Vero. Put plainly: Cytotoxicity against african green monkey Vero cells after 72 hrs. It counts as cell-based. The settings on record: Chlorocebus sabaeus.
A short description of data set [3]: Selectivity index, ratio of IC50 for african green monkey Vero cells to MIC for Mycobacterium tuberculosis H37Rv by microplate alamar blue assay. Format: functional.
Data set [4] in a line: Selectivity index, ratio of IC50 for african green monkey Vero cells to MIC for Mycobacterium tuberculosis H37Rv by low oxygen recovery assay. It counts as functional.
Data set [5] deals with Mycobacterium tuberculosis. Put plainly: Antitubercular activity against Mycobacterium tuberculosis H37Rv at pH 6.8 by microplate alamar blue assay. It counts as functional. (In general: Resazurin is reduced to fluorescent resorufin, in cell work by metabolically active cells.)
Data set [6] has as its system Mycobacterium tuberculosis. The data set is described as follows: Antitubercular activity against Mycobacterium tuberculosis H37Rv at pH 6 by microplate alamar blue assay. Format: functional.
In data set [7] the test system is Mycolicibacterium smegmatis. Put plainly: Antimicrobial activity against Mycobacterium smegmatis. Format: functional.
In a further data set the test system is Bacillus anthracis. Put plainly: Antimicrobial activity against Bacillus anthracis. Format: functional.
In another data set the test system is Staphylococcus aureus. Put plainly: Antimicrobial activity against Staphylococcus aureus. It counts as functional.
In another data set the test system is Escherichia coli. Put plainly: Antimicrobial activity against Escherichia coli. It counts as functional.
The next data set relates to Candida albicans. Put plainly: Antimicrobial activity against Candida albicans. Format: functional.
In data set [8] the test system is Mycobacterium tuberculosis. The data set is described as follows: Antitubercular activity against Mycobacterium tuberculosis Erdman infected in mouse J774A.1 cells. Format: functional.
Data set [9] can be described thus: Inhibition of CYP. Format: ADME.
Data set [10] deals with Mycobacterium tuberculosis. Put plainly: Antimicrobial activity against Mycobacterium tuberculosis Erdman. It counts as functional.
A short description of data set [11]: Toxicity in po dosed BALB/c mouse assessed as maximum tolerated dose treated for 5 days. Format: organism-based. The settings on record: in vivo.
Data set [12] deals with Mycobacterium tuberculosis. Put plainly: Antitubercular activity against Mycobacterium tuberculosis H37Rv at pH 6.8 by microplate alamar blue assay relative to control. Format: functional.

Turning to `CCOC(=O)c1cc(COc2ccc([N+](=O)[O-])c(C(F)(F)F)c2)on1`, the MIC (usually the least concentration at which growth counts as inhibited) was 3.5 µM (≈ 1.26 µg/mL) in data set [1] and 62.2 µM (≈ 22.4 µg/mL) in data set [2]. Moreover, the IC50 (in general, the point on the concentration scale where inhibition reaches its midpoint) in the data set with Vero was greater than 128 µM. Further, the “Selectivity Index” value in data set [3] is greater than 36.6; in [4], greater than 2.1.
With `CCCCOC(=O)c1cc(COc2cc(C(F)(F)F)nc3c(C(F)(F)F)cccc23)on1`, the MIC stood at 0.9 µM (≈ 0.416 µg/mL) in data set [1] and 9.9 µM (≈ 4.58 µg/mL) in [2]. For the same compound, it took 106 µM to reach half-maximal inhibition in the data set with Vero (IC50). Besides, the “Selectivity Index” value in [3] is reported as greater than 109.1; in [4] it was greater than 10.6.
On to `CCOC(=O)c1cc(COc2cccc3cccnc23)on1`, for which the MIC came to 39.8 µM (≈ 11.9 µg/mL) in data set [1] and 125 µM (≈ 37.3 µg/mL) in [2]. In addition, the IC50 in the data set on Vero was greater than 128 µM. Further, the “Selectivity Index” value in [3] is recorded as greater than 3.2; in [4] it was greater than 1.
In the case of `O=C(OCCC(F)(F)F)c1cc(COc2cc(C(F)(F)F)nc3c(C(F)(F)F)cccc23)on1`, the MIC in data set [1] is 25 µM (≈ 12.6 µg/mL); in data set [2] it was 29.9 µM (≈ 15 µg/mL). The IC50 in the data set on Vero is greater than 128 µM. For the same compound, the results for the “Selectivity Index” value in data set [3] and in [4] were greater than 5.1 and greater than 4.3, respectively.
Consider `CCOC(=O)c1cc(COc2cc(C(F)(F)F)c3nc(C(F)(F)F)cc(OCc4cc(C(=O)OCC)no4)c3c2)on1`, for which the figures for the minimum inhibitory concentration (MIC) in data set [1] and in data set [2] were 17.6 µM (≈ 10.6 µg/mL) and 15.6 µM (≈ 9.41 µg/mL), respectively. Further, the IC50 in the data set with Vero is greater than 128 µM. Moreover, the figures for the “Selectivity Index” value in data set [3] and in data set [4] were greater than 7.3 and greater than 8.2, respectively.
On to `NC(=O)c1cnccn1` [PYRAZINAMIDE], for which the minimal inhibitory concentration (MIC) in data set [5] was greater than 4000 µM; in data set [6], 829 µM (≈ 102 µg/mL).
Turning to `CCOC(=O)c1cc(COc2ccc3cccnc3c2)on1`, the MIC in data set [1] worked out at 10.8 µM (≈ 3.22 µg/mL); in data set [2], 40.3 µM (≈ 12 µg/mL). The compound further registered a half-inhibitory concentration (IC50) in the data set on Vero of 108 µM. Moreover, the entries for the “Selectivity Index” value in data set [3] and in [4] were greater than 9.9 and greater than 2.7, respectively.
In the case of `CCOC(=O)c1cc(COc2cc(C(F)(F)F)nc3c(C(F)(F)F)cccc23)on1`, the minimum inhibitory concentration (MIC) is greater than 128 µM in data set [7]; greater than 128 µM against Bacillus anthracis; greater than 128 µM in the data set on Staphylococcus aureus; greater than 128 µM with Escherichia coli; greater than 128 µM against Candida albicans; 0.9 µM (≈ 0.391 µg/mL) in data set [1]. For the same compound, the MIC was found to be 12.1 µM (≈ 5.25 µg/mL) in data set [2], 0.9 µM (≈ 0.391 µg/mL) in [5], 0.1 µM (≈ 0.0434 µg/mL) in [6] and 1.74 µM (≈ 0.756 µg/mL) in data set [10]. This compound had an IC50 in the data set with Vero greater than 128 µM. The “Selectivity Index” value was greater than 142.2 in [3] and greater than 10.5 in [4]. In data set [8], the concentration for an effect of 90% (EC90) (commonly the point of the concentration-response curve where the effect stands at 90%) worked out at 4.1 µM. Also, the EC99 (usually the concentration needed for an effect of 99%) in data set [8] came out at 18.3 µM. Moreover, the “inhibition (INH)” value in [9] is “Not Active”.
Consider `CCOC(=O)c1cc(COc2ccc3ccccc3n2)on1`, for which the minimum inhibitory concentration (MIC) amounted to 103 µM (≈ 30.8 µg/mL) in data set [1] and 64 µM (≈ 19.1 µg/mL) in data set [2]. This compound also gave a half-maximal inhibitory concentration (IC50) in the data set with Vero greater than 128 µM. Moreover, the “Selectivity Index” value in data set [3] is greater than 1.2; in data set [4] it was greater than 2.
`CCOC(=O)c1cc(COc2ccnc3ccccc23)on1`: the minimum inhibitory concentration (MIC) is 25.1 µM (≈ 7.49 µg/mL) in [1] and 11.3 µM (≈ 3.37 µg/mL) in [2]. The same compound showed a concentration for half-maximal inhibition (IC50) in the data set with Vero greater than 128 µM. In [3], the “Selectivity Index” value is listed as greater than 5.1.
For `OCc1cc(COc2cc(C(F)(F)F)nc3c(C(F)(F)F)cccc23)on1`, the minimum inhibitory concentration (MIC) in data set [1] and in [2] was greater than 128 µM each time. For the same compound, in the data set on Vero, the half-inhibitory concentration (IC50) is greater than 128 µM.
For `O=C(c1cc(COc2cc(C(F)(F)F)nc3c(C(F)(F)F)cccc23)on1)N1CCCCO1`, the MIC in data set [1] and in data set [2] was greater than 128 µM each time. This compound returned an IC50 in the data set on Vero greater than 128 µM.
Take `NNC(=O)c1ccncc1` [ISONIAZID]: the minimal inhibitory concentration (MIC) in data set [5] and in [6] was 0.1 µM (≈ 0.0137 µg/mL) throughout.
On to `NC(=O)c1cc(COc2cc(C(F)(F)F)nc3c(C(F)(F)F)cccc23)on1`, for which the minimum inhibitory concentration (MIC) in data set [1] and in [2] was greater than 128 µM each time. Further, in the data set on Vero, the IC50 is greater than 128 µM.
For the compound `CCN(CC)C(=O)c1cc(COc2cc(C(F)(F)F)nc3c(C(F)(F)F)cccc23)on1`, the minimum inhibitory concentration (MIC) in [1] and in [2] was greater than 128 µM throughout. The IC50 with Vero came to 46.5 µM.
`CCCOC(=O)c1cc(COc2cc(C(F)(F)F)nc3c(C(F)(F)F)cccc23)on1`: the minimal inhibitory concentration (MIC) in data set [1] came out at 1.8 µM (≈ 0.807 µg/mL); in data set [2] it was 26.1 µM (≈ 11.7 µg/mL). This compound gave an IC50 with Vero greater than 128 µM. The “Selectivity Index” value in data set [3] is given as greater than 71.2; in data set [4], greater than 4.9.
The like results for `CCCCCCOC(=O)c1cc(COc2cc(C(F)(F)F)nc3c(C(F)(F)F)cccc23)on1` were, in that order, 15.3 µM (≈ 7.5 µg/mL), 26.7 µM (≈ 13.1 µg/mL), greater than 128 µM, greater than 8.4 and greater than 4.8.
Consider `CC(=O)OCc1cc(COc2cc(C(F)(F)F)nc3c(C(F)(F)F)cccc23)on1`, for which the MIC in [1] and in data set [2] was greater than 128 µM each time. In addition, the IC50 in the data set on Vero was greater than 128 µM.
Regarding `CCOC(=O)c1cc(COc2ccc3cc[nH]c3c2)on1`, the MIC in data set [1] amounted to 8.6 µM (≈ 2.46 µg/mL); in [2], 42.9 µM (≈ 12.3 µg/mL). Further, the IC50 in the data set on Vero was greater than 128 µM. Further, the entries for the “Selectivity Index” value in data set [3] and in [4] were greater than 14.9 and greater than 2.9, respectively.
The like results for `CCOC(=O)c1cc(COc2ccc3ncccc3c2)on1` were, in that order, 7.4 µM (≈ 2.21 µg/mL), 12.8 µM (≈ 3.82 µg/mL), greater than 128 µM, greater than 17.3 and greater than 10.
On to `NNC(=O)c1cc(COc2cc(C(F)(F)F)nc3c(C(F)(F)F)cccc23)on1`, for which the MIC in data set [1] and in [2] was greater than 128 µM each time. Besides, the IC50 with Vero was greater than 128 µM.
With `O=C(OCc1ccccc1)c1cc(COc2cc(C(F)(F)F)nc3c(C(F)(F)F)cccc23)on1`, the MIC in data set [1] worked out at 26.5 µM (≈ 13.2 µg/mL); in [2], 50.7 µM (≈ 25.2 µg/mL). Further, in the data set with Vero, the IC50 is greater than 128 µM. Besides, the “Selectivity Index” value in [3] was greater than 4.8; in data set [4], greater than 2.5.
In the case of `CO[C@H]1/C=C/O[C@@]2(C)Oc3c(C)c(O)c4c(O)c(c(/C=N/N5CCN(C)CC5)c(O)c4c3C2=O)NC(=O)/C(C)=C\C=C\[C@H](C)[C@H](O)[C@@H](C)[C@@H](O)[C@@H](C)[C@H](OC(C)=O)[C@@H]1C` [RIFAMPIN], the MIC in data set [1] was determined as 0.1 µM (≈ 0.0823 µg/mL); in data set [2] it was 2 µM (≈ 1.65 µg/mL); in data set [5] it was 0.1 µM (≈ 0.0823 µg/mL).
Turning to `CCOC(=O)c1cc(COc2ccc3ccc(C(F)(F)F)nc3c2)on1`, the MIC in [1] is 3.6 µM (≈ 1.32 µg/mL); in data set [2] it was 21.6 µM (≈ 7.91 µg/mL). Also, in the data set with Vero, the 50% inhibitory concentration (IC50) is greater than 128 µM. The entries for the “Selectivity Index” value in data set [3] and in data set [4] were greater than 25.6 and greater than 5.9, respectively.
For `CCc1noc(-c2cc(COc3cc(C(F)(F)F)nc4c(C(F)(F)F)cccc34)on2)n1`, the minimal inhibitory concentration (MIC) in [1] and in data set [2] was greater than 128 µM in each case. Also, the IC50 in the data set on Vero is greater than 128 µM.
As for `CCOC(=O)c1cc(COc2cccc3ncccc23)on1`, the minimal inhibitory concentration (MIC) in [1] came out at 35.1 µM (≈ 10.5 µg/mL); in data set [2], 31.1 µM (≈ 9.28 µg/mL). The IC50 with Vero was greater than 128 µM. Moreover, the “Selectivity Index” value in [3] is greater than 3.6; in [4], greater than 4.1.
In the case of `OC(c1cc(C(F)(F)F)nc2c(C(F)(F)F)cccc12)C1CCCCN1` (configuration not stated) [MEFLOQUINE], the MIC in data set [1] is 13 µM (≈ 4.92 µg/mL); in data set [2], 7 µM (≈ 2.65 µg/mL). Besides, the “Selectivity Index” value in [3] is listed as 0.9; in data set [4] it was 1.6.
Take `O=C(O)c1cc(COc2cc(C(F)(F)F)nc3c(C(F)(F)F)cccc23)on1`: the minimum inhibitory concentration (MIC) in [7] is greater than 128 µM; against Bacillus anthracis it was 32 µM (≈ 13 µg/mL); in the data set on Staphylococcus aureus it was 22 µM (≈ 8.94 µg/mL); in the data set on Escherichia coli, greater than 128 µM; in the data set with Candida albicans it was greater than 128 µM; in data set [5] it was greater than 128 µM. The minimum inhibitory concentration (MIC) was 7.7 µM (≈ 3.13 µg/mL) in data set [6] and greater than 128 µM in data set [10]. In data set [11], the MTD – broadly, the largest dose that counted as tolerated – at 120 h is 400 mg/kg. Besides, the Activity in data set [12] is on record as 89%.
